Legend:
human OX1 receptor = molecular target: T1, human OX1 receptor (Homo sapiens, UniProt O43613); experiment: Measurement of orexin receptor antagonistic activity (calcium fluorescence, FLIPRtetra); type: cell-based; details: 10 μM test compound, CHO cells expressing human OX1 receptor, OX-A 1 nM; for inhibition at 10 µM: CHO, read-out: Human Orexin1 receptor inhibition (at 10 μM)
T1 construct: expressed in transfected cells; host or cells: CHO cells
T1 sequence (O43613 1-425): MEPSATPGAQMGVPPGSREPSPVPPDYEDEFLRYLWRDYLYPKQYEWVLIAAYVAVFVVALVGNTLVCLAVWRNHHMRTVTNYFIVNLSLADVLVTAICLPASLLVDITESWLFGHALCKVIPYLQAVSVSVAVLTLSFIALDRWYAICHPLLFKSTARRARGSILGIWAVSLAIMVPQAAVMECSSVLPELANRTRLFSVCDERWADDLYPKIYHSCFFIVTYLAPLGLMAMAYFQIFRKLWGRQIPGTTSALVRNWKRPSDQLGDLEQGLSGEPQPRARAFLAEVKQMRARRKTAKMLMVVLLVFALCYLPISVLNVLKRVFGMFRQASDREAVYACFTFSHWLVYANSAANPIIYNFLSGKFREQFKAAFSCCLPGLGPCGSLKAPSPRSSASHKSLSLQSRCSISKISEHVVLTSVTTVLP
Procedure, shortened: (§1)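 CHO cells expressing human OX1 or OX2 receptor, cultured one day. Compound in HBSS/20 mM HEPES/0.1% BSA added, then orexin-A at 1 nM final (OX1) or 0.3 nM final (OX2); calcium fluorescence by FLIPRtetra every 1 s for 2 min.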

human OX2 receptor = molecular target: T2, human OX2 receptor (Homo sapiens, UniProt O43614); experiment: as above; type: cell-based; details: 10 μM test compound, CHO cells expressing human OX2 receptor, OX-A 0.3 nM; for inhibition at 10 µM: CHO, read-out: Human Orexin2 receptor inhibition (at 10 μM)
T2 construct: expressed in transfected cells; host or cells: CHO cells
T2 sequence (O43614 1-444): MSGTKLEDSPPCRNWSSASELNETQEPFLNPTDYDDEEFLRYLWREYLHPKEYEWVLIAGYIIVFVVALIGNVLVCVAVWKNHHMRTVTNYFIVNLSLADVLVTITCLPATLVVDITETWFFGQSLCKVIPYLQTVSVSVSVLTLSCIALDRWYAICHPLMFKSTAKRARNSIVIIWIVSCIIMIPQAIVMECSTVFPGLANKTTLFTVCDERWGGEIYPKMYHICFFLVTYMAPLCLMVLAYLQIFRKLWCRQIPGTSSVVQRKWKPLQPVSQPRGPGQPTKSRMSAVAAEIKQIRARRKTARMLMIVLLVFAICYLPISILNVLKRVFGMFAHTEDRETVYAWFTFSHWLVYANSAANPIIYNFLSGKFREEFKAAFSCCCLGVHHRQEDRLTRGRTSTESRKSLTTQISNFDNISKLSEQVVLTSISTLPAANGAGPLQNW
Procedure, shortened: as §1

SMILES | Human Orexin1 receptor inhibition (at 10 μM) (human OX1 receptor) [%] | Human Orexin2 receptor inhibition (at 10 μM) (human OX2 receptor) [%] | inhibition at 10 µM (human OX2 receptor) [%] | inhibition at 10 µM (human OX1 receptor) [%]
Cc1cc(N2C[C@H](C)N(C(=O)c3ccccc3-n3nccn3)CC(C)O2)nc(C)n1 (stereo partly drawn) [Example 191, ((4S)-2-(2,6-dimethylpyrimidin-4-yl)-4,7-dimethyl-1,2,5-oxadiazepan-5-yl)(2-(2H-1,2,3-triazol-2-yl)phenyl)methanone] | 106 | 109 |  | 
Cc1cc(N2CCN(C(=O)c3ccccc3-n3nccn3)C(C)C(C)O2)nc(C)n1 (stereo not drawn) [Example 192, (2-(2,6-dimethylpyrimidin-4-yl)-6,7-dimethyl-1,2,5-oxadiazepan-5-yl)(2-(2H-1,2,3-triazol-2-yl)phenyl)methanone] | 64 |  | 101 | 
Cc1cc(N2CCN(C(=O)c3ccccc3-n3nccn3)C(C)C(C)O2)nc(C)n1 (stereo not drawn) [Example 193, (2-(2,6-dimethylpyrimidin-4-yl)-6,7-dimethyl-1,2,5-oxadiazepan-5-yl)(2-(2H-1,2,3-triazol-2-yl)phenyl)methanone] | 89 | 103 |  | 
Cc1cc(N2CCN(C(=O)c3cc(Cl)ccc3-n3nccn3)[C@H](C)CO2)nc(C)n1 [Example 194, (5-chloro-2-(2H-1,2,3-triazol-2-yl)phenyl)((6R)-2-(2,6-dimethylpyrimidin-4-yl)-6-methyl-1,2,5-oxadiazepan-5-yl)methanone] |  |  | 100 | 66
Cc1cc(N2CCN(C(=O)c3cc(Cl)ccc3-c3ncccn3)[C@H](C)CO2)nc(C)n1 [Example 195, (5-chloro-2-(pyrimidin-2-yl)phenyl)((6R)-2-(2,6-dimethylpyrimidin-4-yl)-6-methyl-1,2,5-oxadiazepan-5-yl)methanone] |  |  | 102 | 81
Cc1ccc(-c2ncccn2)c(C(=O)N2CCN(c3cc(C)nc(C)n3)O[C@@H](C)C2)c1 [Example 196, ((7S)-2-(2,6-dimethylpyrimidin-4-yl)-7-methyl-1,2,5-oxadiazepan-5-yl)(5-methyl-2-(pyrimidin-2-yl)phenyl)methanone] |  |  | 100 | 89
Cc1cc(N2CCN(C(=O)c3cc(Cl)ccc3-c3ncccn3)C[C@H](C)O2)nc(C)n1 [Example 197, (5-chloro-2-(pyrimidin-2-yl)phenyl)((7S)-2-(2,6-dimethylpyrimidin-4-yl)-7-methyl-1,2,5-oxadiazepan-5-yl)methanone] |  |  | 102 | 96
Cc1cc(N2CCN(C(=O)c3cc(F)c(F)cc3-c3ncccn3)C[C@H](C)O2)nc(C)n1 [Example 198, (4,5-difluoro-2-(pyrimidin-2-yl)phenyl)((7S)-2-(2,6-dimethylpyrimidin-4-yl)-7-methyl-1,2,5-oxadiazepan-5-yl)methanone] |  |  | 98 | 80
Cc1cc(N2CCN(C(=O)c3cc(C(F)(F)F)ccc3-n3nccn3)C[C@H](C)O2)nc(C)n1 [Example 199, ((7S)-2-(2,6-dimethylpyrimidin-4-yl)-7-methyl-1,2,5-oxadiazepan-5-yl)(2-(2H-1,2,3-triazol-2-yl)-5-(trifluoromethyl)phenyl)methanone] |  |  | 100 | 42
Cc1cc(N2CCN(C(=O)c3ccc(Cl)cc3-n3nccn3)C[C@H](C)O2)nc(C)n1 [Example 200, (4-chloro-2-(2H-1,2,3-triazol-2-yl)phenyl)((7S)-2-(2,6-dimethylpyrimidin-4-yl)-7-methyl-1,2,5-oxadiazepan-5-yl)methanone] |  |  | 100 | 83
CCc1ccc(-n2nccn2)c(C(=O)N2CCN(c3cc(C)nc(C)n3)O[C@@H](C)C2)c1 [Example 201, ((7S)-2-(2,6-dimethylpyrimidin-4-yl)-7-methyl-1,2,5-oxadiazepan-5-yl)(5-ethyl-2-(2H-1,2,3-triazol-2-yl)phenyl)methanone] |  |  | 101 | 60
Cc1cc(N2CCN(C(=O)c3cc(C(F)(F)F)ccc3-n3nccn3)CCO2)nc(C)n1 [Example 202, (2-(2,6-dimethylpyrimidin-4-yl)-1,2,5-oxadiazepan-5-yl)(2-(2H-1,2,3-triazol-2-yl)-5-(trifluoromethyl)phenyl)methanone] |  |  | 102 | 17
CCc1ccc(-n2nccn2)c(C(=O)N2CCON(c3cc(C)nc(C)n3)CC2)c1 [Example 203, (2-(2,6-dimethylpyrimidin-4-yl)-1,2,5-oxadiazepan-5-yl)(5-ethyl-2-(2H-1,2,3-triazol-2-yl)phenyl)methanone] |  |  | 101 | 25
Cc1cc(N2CCN(C(=O)c3ccc(Cl)cc3-n3nccn3)CCO2)nc(C)n1 [Example 204, (4-chloro-2-(2H-1,2,3-triazol-2-yl)phenyl)(2-(2,6-dimethylpyrimidin-4-yl)-1,2,5-oxadiazepan-5-yl)methanone] |  |  | 101 | 70
Cc1cc(N2CCN(C(=O)c3ccc(Br)cc3-n3nccn3)C[C@H](C)O2)nc(C)n1 [Example 205, (4-bromo-2-(2H-1,2,3-triazol-2-yl)phenyl)((7S)-2-(2,6-dimethylpyrimidin-4-yl)-7-methyl-1,2,5-oxadiazepan-5-yl)methanone] |  |  | 100 | 82
Cc1nccc(N2CCN(C(=O)c3ccccc3-c3ncccn3)C[C@H](C)O2)n1 [Example 206, ((7S)-7-methyl-2-(2-methylpyrimidin-4-yl)-1,2,5-oxadiazepan-5-yl)(2-(pyrimidin-2-yl)phenyl)methanone] |  |  | 100 | 28
COC(=O)c1cc(N2CCN(C(=O)c3cc(Cl)ccc3-n3nccn3)C[C@H](C)O2)nc(C)n1 [Example 207, methyl 6-((7S)-5-(5-chloro-2-(2H-1,2,3-triazol-2-yl)benzoyl)-7-methyl-1,2,5-oxadiazepan-2-yl)-2-methylpyrimidine-4-carboxylate] |  |  | 81 | 25
CCOC(=O)c1cc(N2CCN(C(=O)c3cc(Cl)ccc3-n3nccn3)C[C@H](C)O2)nc(C)n1 [Example 208, ethyl 6-((7S)-5-(5-chloro-2-(2H-1,2,3-triazol-2-yl)benzoyl)-7-methyl-1,2,5-oxadiazepan-2-yl)-2-methylpyrimidine-4-carboxylate] |  |  | 14 | 8
Cc1cc(N2CCN(C(=O)c3ccccc3C#N)C[C@H](C)O2)nc(C)n1 [Example 209, 2-(((7S)-2-(2,6-dimethylpyrimidin-4-yl)-7-methyl-1,2,5-oxadiazepan-5-yl)carbonyl)benzonitrile] |  |  | 18 | -12
Cc1cc(N2CCN(C(=O)c3c(F)cccc3-n3nccn3)C[C@H](C)O2)nc(C)n1 [Example 210, ((7S)-2-(2,6-dimethylpyrimidin-4-yl)-7-methyl-1,2,5-oxadiazepan-5-yl)(2-fluoro-6-(2H-1,2,3-triazol-2-yl)phenyl)methanone] |  |  | 97 | 51
Cc1cc(N2CCN(C(=O)c3ccc(Cl)cc3-n3ccnn3)C[C@H](C)O2)nc(C)n1 [Example 211, (4-chloro-2-(1H-1,2,3-triazol-1-yl)phenyl)((7S)-2-(2,6-dimethylpyrimidin-4-yl)-7-methyl-1,2,5-oxadiazepan-5-yl)methanone] |  |  | 80 | 21
Cc1cc(N2CCN(C(=O)c3ccccc3-c3ncccn3)[C@H](C)CO2)nc(C)n1 [Example 213, ((6R)-2-(2,6-dimethylpyrimidin-4-yl)-6-methyl-1,2,5-oxadiazepan-5-yl)(2-(pyrimidin-2-yl)phenyl)methanone] |  |  | 102 | 47
Cc1nc(N2CCN(C(=O)c3ccccc3-c3ncccn3)[C@H](C)CO2)cc(C(F)(F)F)n1 [Example 214, ((6R)-6-methyl-2-(2-methyl-6-(trifluoromethyl)pyrimidin-4-yl)-1,2,5-oxadiazepan-5-yl)(2-(pyrimidin-2-yl)phenyl)methanone] |  |  | 103 | 55
Cc1ncc(Cl)c(N2CCN(C(=O)c3cc(Cl)ccc3-n3nccn3)[C@H](C)CO2)n1 [Example 215, ((6R)-2-(5-chloro-2-methylpyrimidin-4-yl)-6-methyl-1,2,5-oxadiazepan-5-yl)(5-chloro-2-(2H-1,2,3-triazol-2-yl)phenyl)methanone] |  |  | 102 | 40

— US10131653B2, “Heterocyclic compound” (TAKEDA PHARMACEUTICAL COMPANY LIMITED, priority 2015, dated 2018)
